# Assay results published in ChEMBL document CHEMBL3091342, “Preparation, in vitro evaluation and molecular modelling of pyridinium-quinolinium/isoquinolinium non-symmetrical bisquaternary cholinesterase inhibitors” (Bioorg Med Chem Lett, 2013).
# Tests used:
# Acetylcholinesterase [1] = target: T1, Acetylcholinesterase (Homo sapiens, UniProt P22303); test: Inhibition of human recombinant AChE after 5 mins by Ellman's method
# Cholinesterase = Cholinesterase (Homo sapiens, UniProt P06276); test: Inhibition of human plasmatic BChE after 5 mins by Ellman's method; design: species or system Plasma
# Acetylcholinesterase [2] = target: T1, Acetylcholinesterase; test: Inhibition of human recombinant AChE by Lineweaver-Burk plot analysis
# Acetylcholinesterase [3] = target: T1, Acetylcholinesterase; test: Non competitive inhibition of human recombinant AChE using ATChCl as substrate by Lineweaver-Burk plot analysis
# Chain of Cholinesterase (P06276 whole entry): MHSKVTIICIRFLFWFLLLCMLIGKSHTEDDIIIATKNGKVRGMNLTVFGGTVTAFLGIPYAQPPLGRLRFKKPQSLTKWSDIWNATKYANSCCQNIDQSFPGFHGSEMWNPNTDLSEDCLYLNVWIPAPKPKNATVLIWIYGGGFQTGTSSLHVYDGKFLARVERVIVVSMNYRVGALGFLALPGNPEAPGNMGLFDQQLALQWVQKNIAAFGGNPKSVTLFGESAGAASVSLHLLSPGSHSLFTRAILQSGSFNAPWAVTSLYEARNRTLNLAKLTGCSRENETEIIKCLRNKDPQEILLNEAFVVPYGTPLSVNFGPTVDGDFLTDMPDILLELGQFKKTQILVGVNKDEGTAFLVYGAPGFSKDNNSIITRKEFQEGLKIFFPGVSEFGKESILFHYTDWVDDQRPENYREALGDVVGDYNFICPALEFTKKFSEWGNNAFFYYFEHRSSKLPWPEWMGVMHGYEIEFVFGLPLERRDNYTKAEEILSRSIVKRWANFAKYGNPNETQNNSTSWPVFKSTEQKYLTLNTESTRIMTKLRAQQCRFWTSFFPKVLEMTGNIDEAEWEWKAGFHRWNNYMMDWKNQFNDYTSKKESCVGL
# T1 sequence (P22303 whole entry): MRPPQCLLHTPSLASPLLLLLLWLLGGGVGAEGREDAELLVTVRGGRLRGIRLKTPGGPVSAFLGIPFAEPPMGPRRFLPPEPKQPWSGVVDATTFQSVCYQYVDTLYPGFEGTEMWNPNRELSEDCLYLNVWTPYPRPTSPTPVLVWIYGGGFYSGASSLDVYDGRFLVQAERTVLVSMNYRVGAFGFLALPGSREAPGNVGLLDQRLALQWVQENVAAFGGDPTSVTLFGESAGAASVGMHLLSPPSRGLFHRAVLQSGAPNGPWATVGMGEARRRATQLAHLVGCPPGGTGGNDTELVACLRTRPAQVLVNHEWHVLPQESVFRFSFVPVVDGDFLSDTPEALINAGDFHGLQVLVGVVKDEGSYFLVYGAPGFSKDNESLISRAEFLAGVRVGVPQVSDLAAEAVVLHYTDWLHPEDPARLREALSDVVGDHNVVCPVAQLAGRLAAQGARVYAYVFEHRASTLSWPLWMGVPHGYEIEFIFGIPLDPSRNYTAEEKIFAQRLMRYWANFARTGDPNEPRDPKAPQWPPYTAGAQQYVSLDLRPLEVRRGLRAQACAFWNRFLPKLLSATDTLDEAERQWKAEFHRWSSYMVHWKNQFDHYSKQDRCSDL
SMILES,IC50 (Acetylcholinesterase [1]) [nM],IC50 (Cholinesterase) [nM],Ki (Acetylcholinesterase [2]) [nM],Ki (Acetylcholinesterase [3]) [nM]
c1cc[n+](CCCCCCC[n+]2ccc3ccccc3c2)cc1,800,1000,–,–
c1cc[n+](CCCCCCCC[n+]2ccc3ccccc3c2)cc1,140,7700,–,–
c1cc[n+](CCCCCCCCC[n+]2ccc3ccccc3c2)cc1,40,350,–,–
c1cc[n+](CCCCCCCCCC[n+]2ccc3ccccc3c2)cc1,20,370,–,–
c1cc[n+](CCCCCCCCCCC[n+]2ccc3ccccc3c2)cc1,30,700,–,–
c1cc[n+](CCCCCCC[n+]2cccc3ccccc32)cc1,540,2200,–,–
c1cc[n+](CCCCCCCC[n+]2cccc3ccccc32)cc1,270,2000,–,–
c1cc[n+](CCCCCCCCC[n+]2cccc3ccccc32)cc1,120,1700,–,–
c1cc[n+](CCCCCCCCCCC[n+]2cccc3ccccc32)cc1,17,900,–,–
c1cc[n+](CCCCCCCCCCCC[n+]2cccc3ccccc32)cc1,4.7,680,20,10
